Experimental data as given in ChEMBL document CHEMBL6153032, “Discovery of a highly potent, N-terminal domain-targeting degrader of AR-FL/AR-V7 for the treatment of prostate cancer” (Eur J Med Chem, 2025).

Columns and labels:
[1] = AUC (0 to infinity) in Sprague-Dawley rat 2 mg/kg, iv by LC-MS/MS analysis; type: ADME, organism-based; settings: in vivo
[2] = Toxicity in BALB/c mouse assessed as liver damage at 10 mg/kg, iv administered once daily for 21 days by H and E staining based analysis; type: organism-based; settings: in vivo, 504 h, time 21 day
[3] = system: DU-145; experiment: Antiproliferative activity against human DU-145 cells assessed as cell viability incubated for 4 days by CCK-8 assay; type: functional, cell-based; settings: DU-145, 96 h

For `CC(C)(c1ccc(OCCNc2cccc3c2C(=O)N(C2CCC(=O)NC2=O)C3=O)cc1)c1ccc(OCc2cccc(N3CCOCC3)n2)cc1` (stereo not drawn), the AUC(0-inf) [1] was 2220 ng·h/mL, the Activity [2] was “Non-toxic” and the IC50 [3] was greater than 80 µM.
